From paper PMC12059926, “Development and Biological Assessment of Thiazole-Based Pyridines for Targeted Therapy in Lung Cancer” (ACS Omega, 2025)
In brackets after ≈: the same amount, converted by molar mass.

How the values were obtained:
[1] = test system: L929 (mouse fibroblast cell line); experiment: MTT cytotoxicity assay on L929 healthy cells; assay type: cell-based; conditions: mean ± SD
Method: (§1) The synthesized final compounds (2a–2o) were initially evaluated for their cytotoxic effects to assess their anticancer activity against A549 lung cancer cells. The healthy cell line L929 (mouse fibroblast cell line) was also used to determine the selective antiproliferative properties of the compounds.
(§2) The human lung cancer cell line A549 and mouse fibroblast cell line L929 were used to evaluate the cytotoxicity of the compounds. Cells propagated under the specified conditions were cultured in 96-well plates at 5 × 10^3 cells/well. […] At the end of the incubation period, cell viability was determined by measuring the absorbance of the purple color formed by the breakdown of the MTT dye at 540 nm. Half-maximal inhibitory concentrations (IC50) were determined based on the tested concentrations of the compounds. The tests were triplicated.[38] The MTT assay for cytotoxicity of compounds was determined according to previously published procedures.[39],[40]
(§3) The concentration that inhibits 50% of the cell population was calculated as IC50 using GraphPad Prism 9.0 statistical software program, and standard deviation values were analyzed. Data are expressed as mean ± SD. Comparisons were made using one-way ANOVA for continuous variables with normal distribution, and Tukey’s test was used for post hoc analysis of group differences. p < 0.05 was considered statistically significant.
(§4) The cell viability value of the control group was considered 100%, and all viability values were calculated using the formula below. The experiment was performed in 3 replicates. [drawing 2]

[2] = test system: A549 lung cancer cell line; experiment: MTT cytotoxicity assay on A549 lung cancer cells; assay type: cell-based, human; conditions: for IC50: Homo sapiens; for SI: selectivity index: L929 versus A549
Method: as §1, §2, §3, §4

[3] = target: T1, MMP-9 enzyme (Homo sapiens, UniProt P14780); experiment: MMP-9 enzyme inhibition, colorimetric kit; assay type: biochemical; conditions: for inhibition at 100 µM: compounds at 100 μM
T1 construct: purchased Enzo Life Sciences Inc. (Farmingdale, NY, USA)
Method: Compounds (2a–2o) were tested to determine their MMP-9 enzyme inhibition potential. The compounds were tested at a concentration of 100 μM, and the standard molecule NNGH at a concentration of 1.3 μM.
MMP-9 inhibition was assessed using a colorimetric kit from Enzo Life Sciences Inc. (Farmingdale, NY, USA), following procedures similar to those described in previous studies.[25],[26] A thiopeptide was used as a chromogenic substrate (Ac-PLG-[2-mercapto-4-methyl-pentanoyl]-LG-OC2H5). 2-Nitro-5-thiobenzoic acid, formed by the reaction of the sulfhydryl group produced as a result of hydrolysis of the thioester by the MMP-9 enzyme and then reaction with DTNB [5,5′-dithiobis(2-nitrobenzoic acid), Ellman’s reagent], gives absorbance at 412 nm in a microplate reader (BioTek, PowerWave, Gen5 software, Winooski, VT, USA). Based on these absorptions, MMP-9 inhibition concentrations were determined. The assays were performed in triplicate. NNGH (N-isobutyl-N-(4-methoxyphenylsulfonyl)glycyl hydroxamic acid) was used as a control inhibitor. Data were shown as mean ± SD. The inhibitor % remaining activity of MMPs was calculated using the following equation:
Inhibitor% activity remaining = (V inhibitor/V control) × 100.
The inhibition (percent) of MMPs was calculated using the following equation: [drawing 1]

[4] = test system: A549 cells; experiment: Mitochondrial membrane potential (JC-1) by flow cytometry; assay type: cell-based, human; conditions: for % Mitochondrial membrane depolarized cells / % Mitochondrial membrane polarized cells: IC50 dose, JC-1
Text: The mitochondrial membrane potential provides information about the state of electrons during ATP production through oxidative phosphorylation, which is essential for cellular viability. Mitochondrial dysfunction occurs when this electrical regulation is disturbed and can occur in various diseases and the process of apoptosis.[23] […] Compounds 2m, 2g, and 2c followed this, with depolarization levels exceeding 21%. The mitochondrial dysfunction in compound 2m can be considered a contributing factor to apoptosis.
Cell staining with JC-1 was performed according to the manufacturer’s recommendations for the BD , Pharmingen Flow Cytometry Kit. […] Compounds were applied at IC50 doses of no more than 1 × 10^6/mL per well in 6-well plates. After treatment, each cell suspension was transferred to a 15 mL polystyrene centrifuge tube, the cells were centrifuged at 400g for 5 min, and the supernatant was removed. 0.5 mL of freshly prepared working solution was added to each pellet, and the solution was vortexed. The test cells were soaked in JC-1 working solution at 37 °C for 10–15 min, and the cells were washed twice. After centrifugation at 400g for 5 min, each cell pellet was suspended in 0.5 mL of 1X assay buffer and vortexed. The cells were then analyzed by flow cytometer.
(§5) The apoptotic results (Annexin V-FITC, Caspase 3, JC-1) were evaluated by flow cytometry using FACS Diva Version 6.1.1. software, and the apoptotic cells were determined as the percentage of cells.

[5] = test system: caspase-3 in A549 cells; experiment: Caspase-3 activation; assay type: cell-based, human; conditions: 24 h
Text: Caspases can take part in the cell death mechanism through both intrinsic and extrinsic pathways, with caspase-3 being the first enzyme activated in the apoptosis process.[24] Activation of the caspase-3 enzyme by the compounds, indicated as caspase-3 positive, and inhibition, indicated as caspase-3 negative, are presented in percentage terms in Table 5.
A Spectrofluorometric Caspase-3 assay kit (BD Pharmingen, Franklin Lakes, NJ) was used for determining Caspase-3 activation by measuring the caspase-3 or DEVD-cleaving activity. Initially, A549 cells at a concentration of 1 × 10^6 cells/mL underwent a washing process using phosphate-buffered saline (PBS). Subsequently, they were suspended in a cold solution known as cell lysis buffer and kept on ice for a duration of 30 min. […] In each reaction, a mixture of […] of diluted Ac DEVD-AMC (a synthetic tetrapeptide fluorogenic substrate used to measure caspase-3 activity) and 0.2 mL of 1x HEPES buffer was added to a well. Then, […] of cell lysate was introduced into each well/reaction. The reaction mixtures were incubated at 37 °C for 1 h. The amount of AMC released from Ac-DEVD-AMC was measured by using a microplate reader (PerkinElmer/Victor/X3) with an excitation wavelength of 380 nm and an emission wavelength of 460 nm. Apoptotic cell lysates containing active caspase-3 produced significant emissions compared to controls. In addition, the AMC emission of nonapoptotic control cell lysates was taken as 100%, and the emission of other cell lysates was measured relative to the emission of control cells. All experiments were repeated in duplicate. Active compounds, which are the most cytotoxic compounds, were evaluated for caspase-3 activation using previously published procedures.[40],[44]
as §5

[6] = test system: A549 cells; experiment: Annexin V-FITC/propidium iodide apoptosis detection by flow cytometry; assay type: cell-based, human; conditions: IC50 dose, 24 h
Method: To determine whether the antiproliferative effects of the compounds on the A549 cell line proceed through the apoptotic or necrotic pathway, the assay was performed with Annexin V-FITC/propidium iodide dyes in a flow cytometry device. […] At least 10,000 cells were analyzed, and quadrant analysis was performed. The results are presented as early apoptotic cells, late apoptotic cells, viable cells, and necrotic cells in Table 3, and as a diagram in Figure 1. In control cells, the number of viable cells was 92.04%, necrotic cells were 1.16%, early apoptotic cells were 3.43%, and late apoptotic cells were 3.28%. […] Among the compounds, 2m was the most apoptosis-inducing compound, with 14.99% early apoptotic and 10.63% late apoptotic cell percentages. […] This compound was followed by compound 2c with a 13.79% early apoptotic cells and 4.03% late apoptotic cells. Among the compounds, compound 2o induced early apoptosis the least (1.87%) and necrosis the most (3.10%). […] Nonapoptotic cell death methods, such as necroptosis and pyroptosis, can be considered for the aforementioned compounds.
The compounds were treated with A549 cells at IC50 doses, and early and late apoptosis, necrosis, and viable cell ratios were determined as percentages. Cells were seeded at 37 °C in humidified air containing 5% CO2 with 10^5 cells/plate in each well. A549 cells were collected, washed twice with ice-cold PBS, and resuspended in 100 μL of binding buffer. Five μL (5 μg/mL) of Annexin V-FITC and PI were added to the cells and incubated for 15 min in the dark at room temperature (20–25 °C). Then, 400 μL of binding buffer was added to the mixture samples and analyzed on a flow cytometer. Quadrant analyses were also presented.[41] Compounds 2a, 2b, 2c, 2j, 2m, and 2o, with a satisfactory cytotoxic profile, were examined via flow cytometry to assess the apoptosis/necrosis cell ratio using previously published procedures.[42]
as §5

T1 sequence (P14780 107-444 limits assumed): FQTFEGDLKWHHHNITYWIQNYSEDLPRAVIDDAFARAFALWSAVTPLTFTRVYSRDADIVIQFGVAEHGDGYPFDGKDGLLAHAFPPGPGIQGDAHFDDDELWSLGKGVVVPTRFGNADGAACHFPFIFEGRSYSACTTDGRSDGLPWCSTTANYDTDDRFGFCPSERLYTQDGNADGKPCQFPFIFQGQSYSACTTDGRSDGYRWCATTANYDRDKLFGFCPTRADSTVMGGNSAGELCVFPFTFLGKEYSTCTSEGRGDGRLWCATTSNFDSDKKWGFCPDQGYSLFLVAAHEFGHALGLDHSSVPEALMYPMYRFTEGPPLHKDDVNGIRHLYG

Row | Compound | IC50 [1] [µg/mL] | IC50 ([2]; A549 cells, MTT, mean ± SD) [µg/mL] | SI: selectivity index [2] | % Mitochondrial membrane depolarized cells [4] [%] | % Mitochondrial membrane polarized cells [4] [%] | % Caspase-3 negative cells [5] [%] | % Caspase-3 positive cells [5] [%] | Q1-UL necrotic cells [6] [%] | Q1-UR late apoptotic cells [6] [%] | also measured
1 | C(=NNc1nc(-c2ccc(-c3ccccc3)cc2)cs1)c1cccnc1 [Compound 2h, 4-([1,1’-Biphenyl]-4-yl)-2-(2-(pyridin-3-ylmethylene)hydrazinyl)thiazole] | 15.2 ± 0.53 (≈ 42.7 µM) | 9.93 ± 0.42 (≈ 27.9 µM) | 1.53 | – | – | – | – | – | – | –
2 | COc1ccc(OC)c(-c2csc(NN=Cc3cccnc3)n2)c1 [Compound 2f, 4-(2,5-Dimethoxyphenyl)-2-(2-(pyridin-3-ylmethylene)hydrazinyl)thiazole] | 14 ± 0.57 (≈ 41 µM) | 4.04 ± 0.29 (≈ 11.9 µM) | – | – | – | – | – | – | – | inhibition at 100 µM ([3]; mean ± SD): 70.8 ± 2.2%
3 | COc1ccc(S(=O)(=O)N(CC(=O)NO)CC(C)C)cc1 [NNGH, N-isobutyl-N-(4-methoxyphenylsulfonyl)glycyl hydroxamic acid, reference compound] | – | – | – | – | – | – | – | – | – | MMP-9 inhibition % ([3]; standard at 1.3 μM, mean ± SD): 93.56 ± 1.78%
4 | Oc1ccc(-c2csc(NN=Cc3ccncc3)n2)cc1O [Compound 2n, 4-(2-(2-(Pyridin-4-ylmethylene)hydrazinyl)thiazol-4-yl)benzene-1,2-diol] | 4.48 ± 0.68 (≈ 14.3 µM) | 4.23 ± 0.54 (≈ 13.5 µM) | 1.06 | – | – | – | – | – | – | inhibition at 100 µM ([3]; mean ± SD): 19 ± 3.63%
5 | N.N.[Cl][Pt][Cl] [Cisplatin, reference compound] | – | – | – | 36.27 | 62.15 | 75.56 | 11.65 | 6.56 | 31.29 | total apoptosis (early + late apoptotic cells) [6]: 62.37%; IC50 A549 ([2]; A549 cells, MTT, mean ± SD): 12.65 ± 0.38 µg/mL
6 | Clc1ccc(-c2csc(NN=Cc3ccncc3)n2)cc1Cl [Compound 2o, 4-(3,4-Dichlorophenyl)-2-(2-(pyridin-4-ylmethylene)hydrazinyl)thiazole] | 51.9 ± 0.58 (≈ 149 µM) | 5.04 ± 0.31 (≈ 14.4 µM) | – | 12.85 | 87.73 | 25.00 | 0.00 | 3.10 | 7.92 | Q1-LL viable cells [6]: 87.11%; Q1-LR early apoptotic cells [6]: 1.87%
7 | Clc1ccc(-c2csc(NN=Cc3ccccn3)n2)cc1Cl [Compound 2e, 4-(3,4-Dichlorophenyl)-2-(2-(pyridin-2-ylmethylene)hydrazinyl)thiazole] | 4.87 ± 0.3 (≈ 13.9 µM) | 4.56 ± 0.31 (≈ 13.1 µM) | 1.07 | – | – | – | – | – | – | inhibition at 100 µM ([3]; mean ± SD): 30.3 ± 2.64%
8 | COc1ccc(OC)c(-c2csc(NN=Cc3ccccn3)n2)c1 [Compound 2a, 4-(2,5-Dimethoxyphenyl)-2-[2-(pyridin-2 ylmethylene)hydrazinyl]thiazole] | 4.36 ± 0.32 (≈ 12.8 µM) | 7.3 ± 0.33 (≈ 21.4 µM) | 0.60 | – | – | – | – | – | – | MMP-9 inhibition, result in words ([3]; compared with 2f): less active than 2f (2,5-dimethoxypehnyl) or inactive
9 | Clc1ccc(-c2csc(NN=Cc3cccnc3)n2)cc1Cl [Compound 2j, 4-(3,4-Dichlorophenyl)-2-(2-(pyridin-3-ylmethylene)hydrazinyl)thiazole] | 9.76 ± 0.45 (≈ 27.9 µM) | 6.58 ± 0.35 (≈ 18.8 µM) | 1.48 | 15.40 | 84.75 | 97.47 | 0.96 | 1.68 | 3.31 | Q1-LL viable cells [6]: 91.05%; Q1-LR early apoptotic cells [6]: 3.96%; apoptosis induction, result in words [6]: did not significantly induce apoptosis
10 | CS(=O)(=O)c1ccc(-c2csc(NN=Cc3ccncc3)n2)cc1 [Compound 2l, 4-(4-(Methylsulfonyl)phenyl)-2-(2-(pyridin-4-ylmethylene)hydrazinyl)thiazole] | 6.74 ± 0.41 (≈ 18.8 µM) | 4.7 ± 0.3 (≈ 13.1 µM) | 1.43 | – | – | – | – | – | – | –
11 | CS(=O)(=O)c1ccc(-c2csc(NN=Cc3ccccn3)n2)cc1 [Compound 2b, 4-(4-(Methylsulfonyl)phenyl)-2-(2-(pyridin-2-ylmethylene)hydrazinyl)thiazole] | 31.2 ± 0.56 (≈ 87.2 µM) | 9.93 ± 0.37 (≈ 27.7 µM) | – | 47.96 | 54.51 | 84.70 | 7.73 | 0.33 | 2.28 | mitochondrial membrane depolarization relative to cisplatin ([4]; versus cisplatin): approximately 1.5 times; Q1-LL viable cells [6]: 90.44%; Q1-LR early apoptotic cells [6]: 6.95%; apoptosis induction, result in words [6]: did not significantly induce apoptosis
12 | Oc1ccc(-c2csc(NN=Cc3ccccn3)n2)cc1O [Compound 2d, 4-(2-(2-(Pyridin-2-ylmethylene)hydrazinyl)thiazol-4-yl)benzene-1,2-diol] | 9.2 ± 0.36 (≈ 29.5 µM) | 4.7 ± 0.6 (≈ 15 µM) | 1.96 | – | – | – | – | – | – | –
